Reference: paper PMC11562385 (RSC Chemical Biology, 2024)
Where two headings read alike, the source gives them in different places. Blank lines part the entries; values can stand above or below the compound they belong to. Square brackets hold non-standard residues; d marks the D form. Peptide text beside a SMILES is read from it. * marks the point of attachment. Dab = NCC[C@H](N)C(=O)O; Dap = NC[C@H](N)C(=O)O; Acryloyl = C=CC(=O)*

Key:
PD1:PDL1 interaction = biological target: T1, PD1:PDL1 interaction (Homo sapiens, UniProt Q15116); experiment: PD1/PDL1 immunoblocking ELISA (BPS Bioscience kit cat # 72005); type: binding
T1 construct: purchased BPS Bioscience 72005
T1 sequence (Q15116 25-167 limits assumed): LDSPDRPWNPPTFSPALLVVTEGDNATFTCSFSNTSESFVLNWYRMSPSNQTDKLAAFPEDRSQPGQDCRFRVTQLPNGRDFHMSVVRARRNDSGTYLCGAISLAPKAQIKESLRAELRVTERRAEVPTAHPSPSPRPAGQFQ
Method: Original loops with Phe/Trp and their Gly-derived analogs. Experimental EC50 values from inhibitory dose–response curves. Error bars indicate the mean ± SD, (n = 3). […]
SDS -Pages, buffers, and stain were purchased from Fisher
8. Immunoblocking ELISA Assay
Peptide inhibitor stock solutions were prepared in the concentration range of approximately 1-5 mM in DMSO. […]
plate was then washed and blocked with blocking buffer for 1 h at room temperature. Inhibitor solutions (ranging from 0.01 to 100 μM) and a blank solution (DMSO/PBS buffer) were added to designated wells. To initiate the […]
inhibitor solutions. After a 2 h incubation at room temperature, the plate was washed and blocked again for 10 min. Streptavidin-HRP (diluted at 1 : 1000) was added and incubated for 1 h at room temperature with gentle shaking. The plate was washed and blocked once more for 10 min. ELISA ECL substrate was added, and the resulting chemoluminescence was immediately measured in a luminometer (FLUOstar OPTIMA, BMG Labtech).
The luminescence value of the blank was subtracted from all readings according to the manufacturer's

[1] = Variable-temperature CD melting curves (CD-melts at 228±2 nm and 202±2 nm), individual and global two-state fits; type: physicochemical; design: DSo: unit not given here
Method: Recently, our laboratory brought forward a novel synthetic technology for the synthesis of acyclic β-hairpins with long loops. […] To compare hairpins’ stability, both regular (R) and bulged (B) scaffolds were crafted around a flexible 10-residue model loop (G4K2G4) and analyzed by CD (circular dichroism) spectroscopy (Fig. 2(A), see ESI, ^† Table S5). The […] structure of these model scaffolds 1avs.2a in solution were recorded in the far-UV CD spectra. […] The CD-exciton intensity was therefore used as a global probe to determine the %-folding of ADAPTins and to obtain melting curves corresponding to the hairpin fraying mechanism upon a gradual increase of temperature (0 to 95 °C).[68] […] In addition, NMR (nuclear magnetic resonance) chemical shifts were measured to determine variations in backbone […] structures (Fig. 2(B)). Secondary chemical shift deviations (CSDs) were calculated against random coil values[69] for both ADAPTin scaffolds 1vs.2 to verify that the hairpins were folded and if any variation of conformational rigidity exist within the loops. […]
Mass Spectrometer coupled to a Vanquish™ Neo UHPLC System (Thermo Scientific™). Peptide solutions for circular dichroism (CD) were prepared within a concentration range of 15-120 µM in a phosphate buffer (15 mM, […]
measured accurately using a JASCO V-670 spectrophotometer relied on the combined molar absorptivity of Trp (ε280 = 5580 M-1 .cm-1 per Trp) and Tyr (ε280 = 1280 M-1 .cm-1 per Tyr) to determine each sample's concentration.
CD spectra were recorded using a JASCO J-810 Spectropolarimeter equipped with a temperature controller module JASCO PFD-425S. Raw CD melting curves were processed in SpectraGryph, and fitting was performed in OriginPro 9.0 (Originlab Corporation, U.S.A.). NMR samples were prepared by reconstituting freeze -dried peptides (~ 1-5 mg) in mixture of water and DMSO -d6 (90:10 v/v) using 2,2-dimethyl-2-silapentane-5-sulfonate (DSS) as internal standard for chemical shifts (0 ppm), and spectra were recorded at 291 K (18 °C) unless otherwise stated. Chemical shifts ( δ) are reported in ppm. Samples for NMR experiments were prepared in a range of 3-10 mM of peptide in solution unless otherwise noted.

[2] = ELISA, mean of three independent experiments, read-out: EC50 Value

SMILES: CSCC[C@H](NC(=O)[C@H](CC(=O)O)NC(=O)CNC(=O)[C@H](CCCNC(=N)N)NC(=O)[C@H](Cc1ccc(O)cc1)NC(=O)[C@H](CC(=O)O)NC(=O)[C@H](CCCNC(=N)N)NC(=O)[C@H](Cc1c[nH]c2ccccc12)NC(=O)[C@@H](NC(=O)[C@H](Cc1c[nH]c2ccccc12)NC(=O)[C@@H](N)CCCNC(=N)N)C(C)C)C(=O)NCC(=O)N[C@@H](Cc1ccccc1)C(=O)N[C@@H](CC(=O)O)C(=O)N[C@@H](Cc1c[nH]c2ccccc12)C(=O)N[C@H](C(=O)N[C@@H](Cc1c[nH]c2ccccc12)C(=O)N[C@@H](CCC(=O)O)C(=O)O)C(C)C [1b] (H-RWVWRDYRGDMGFDWVWE-OH)
EC50 (PD1:PDL1 interaction; [2]): 7080 nM
LE (ligand efficiency) (PD1:PDL1 interaction; LE = -RTln(EC50)/HA, HA = non-hydrogen atoms omitting the strap (RWV•••VWE)): 0.06
EC50 (PD1:PDL1 interaction; [PD1•PDL1] blocking EC50, Fig. 3B, cut-off bars of congeneric pairs (Phe/Trp vs Gly), n = 3): > 5000 nM
ΔGF0 ([1]; CD-melt at 228±2 nm, individual two-state Gibbs-Helmholtz fit (Origin 9.0), 0-95 °C, phosphate buffer 15 mM pH 6.5 ± MeOH): -0.64 ± 0.01 kcal/mol
DCp (fitted value) ([1]; CD-melt of 1b, c 3.4e-5 M, l 0.1 cm, two-state fit in OriginPro): -40.77 cal/(deg.mol)
DHm (fitted value) ([1]; CD-melt of 1b, c 3.4e-5 M, l 0.1 cm, two-state fit in OriginPro, enthalpy at Tm): -9.84462 kcal/mol
cF(18 oC), fraction folded ([1]; CD-melt of 1b, two-state fit in OriginPro, 18 °C): 81%
TDSo ([1]; CD-melt of 1b, two-state fit in OriginPro, standard-state entropic term): -8.2949 kcal/mol
DHo ([1]; CD-melt of 1b, two-state fit in OriginPro, standard-state folding enthalpy): -8.9431 kcal/mol
DSo ([1]; CD-melt of 1b, two-state fit in OriginPro, standard-state folding entropy): -27.84
DGo ([1]; CD-melt of 1b, two-state fit in OriginPro, standard-state folding free energy): -0.6482 kcal/mol
Tm ([1]; CD-melt of 1b, two-state fit in OriginPro, the fitted Tm restated without a unit (apparently °C)): 47 °C
%fold 291K ([1]; CD-melt of 1b, two-state fit, 291 K): 81%
%fold 310K ([1]; CD-melt of 1b, two-state fit, 310 K): 62%
Tm (fitted value) ([1]; CD-melt of 1b, θ - θcoil(95) vs T 0-95 °C, c 3.4e-5 M, l 0.1 cm, two-state fit in OriginPro): 320.113 K
TM (°C) ([1]; Fig. 2, CD-melts of regular vs bulged scaffolds): 47 °C
Tm ([1]; Table S5, individual fit, 228±2 nm): 46.9 oC
Hairpin %-fold 291K ([1]; Table S5, individual fit, 291 K): 81 ± 1%
Hairpin %-fold 310K ([1]; Table S5, individual fit, 310 K): 62 ± 1%
-TΔSF0 ([1]; as E16): 8.29 ± 0.02 kcal/mol
ΔCpF0 ([1]; as E16): -41 ± 1 cal.deg-1.mol-1
ΔHF0 ([1]; as E16): -8.94 ± 0.02 kcal/mol
ΔHm ([1]; as E16): -9.84 ± 0.01 kcal/mol
VT-CD %-fold ([1]; folded fraction (χF) at 25 °C from CD-melts, (R) regular / (B) bulged fold, phosphate buffer 15 mM pH 6.5, up to 20% MeOH): 81% (R)
VT-CD Tm (°C) ([1]; melting temperature from CD-melts, phosphate buffer 15 mM pH 6.5, up to 20% MeOH): 47 °C

SMILES: CC(C)C[C@H](NC(=O)[C@H](CCC(N)=O)NC(=O)[C@H](CCCNC(=N)N)NC(=O)[C@H](C)NC(=O)[C@@H](NC(=O)[C@H](Cc1c[nH]c2ccccc12)NC(=O)[C@@H](N)CCCNC(=N)N)C(C)C)C(=O)N[C@@H](Cc1ccc(O)cc1)C(=O)N[C@@H](Cc1ccc(O)cc1)C(=O)N[C@@H](Cc1ccccc1)C(=O)N[C@@H](CC(=O)O)C(=O)N[C@@H](Cc1ccc(O)cc1)C(=O)N[C@@H](Cc1c[nH]c2ccccc12)C(=O)N[C@H](C(=O)N[C@@H](Cc1c[nH]c2ccccc12)C(=O)N[C@@H](CCC(=O)O)C(=O)O)C(C)C [2m] (H-RWVARQLYYFDYWVWE-OH)
EC50 (PD1:PDL1 interaction; [2]): 144 nM

SMILES: CSCC[C@H](NC(=O)CNC(=O)[C@H](CCC(=O)O)NC(=O)[C@H](CCCNC(=N)N)NC(=O)[C@H](C)NC(=O)[C@@H](NC(=O)[C@H](Cc1c[nH]c2ccccc12)NC(=O)[C@@H](N)CCCNC(=N)N)C(C)C)C(=O)N[C@@H](CC(N)=O)C(=O)N[C@H](C(=O)N[C@@H](CC(=O)O)C(=O)NCC(=O)N[C@@H](Cc1ccc(O)cc1)C(=O)N[C@@H](Cc1ccccc1)C(=O)N[C@@H](CC(=O)O)C(=O)N[C@@H](Cc1ccc(O)cc1)C(=O)N[C@@H](Cc1c[nH]c2ccccc12)C(=O)N[C@@H](Cc1cnc[nH]1)C(=O)N[C@@H](Cc1c[nH]c2ccccc12)C(=O)N[C@@H](CCC(=O)O)C(=O)O)[C@@H](C)O [2o] (H-RWVAREGMNTDGYFDYWHWE-OH)
EC50 (PD1:PDL1 interaction): 349 nM

SMILES: C=CC(=O)NC[C@H](NC(=O)CNC(=O)[C@H](CC(=O)O)NC(=O)[C@@H](NC(=O)[C@H](CC(N)=O)NC(=O)[C@H](CCSC)NC(=O)CNC(=O)[C@H](CCC(=O)O)NC(=O)[C@H](CCCNC(=N)N)NC(=O)[C@H](C)NC(=O)[C@@H](NC(=O)[C@H](Cc1c[nH]c2ccccc12)NC(=O)[C@@H](N)CCCNC(=N)N)C(C)C)[C@@H](C)O)C(=O)N[C@@H](Cc1ccccc1)C(=O)N[C@@H](CC(N)=O)C(=O)N[C@@H](Cc1ccc(O)cc1)C(=O)N[C@@H](Cc1c[nH]c2ccccc12)C(=O)N[C@H](C(=O)N[C@@H](Cc1c[nH]c2ccccc12)C(=O)N[C@@H](CCC(=O)O)C(=O)O)C(C)C [2pb] (H-RWVAREGMNTDG[Dap](Acryloyl)FNYWVWE-OH)
EC50 (PD1:PDL1 interaction; [2]): 3040 nM

SMILES: CC[C@H](C)[C@H](NC(=O)[C@H](Cc1ccc(O)cc1)NC(=O)[C@H](Cc1c[nH]c2ccccc12)NC(=O)[C@H](Cc1ccc(O)cc1)NC(=O)[C@H](CC(N)=O)NC(=O)CNC(=O)[C@H](Cc1ccc(O)cc1)NC(=O)[C@H](C)NC(=O)[C@H](CCCNC(=N)N)NC(=O)[C@H](C)NC(=O)[C@@H](NC(=O)[C@H](Cc1c[nH]c2ccccc12)NC(=O)[C@@H](N)CCCNC(=N)N)C(C)C)C(=O)N[C@@H](CC(=O)O)C(=O)N[C@H](C(=O)N[C@@H](Cc1c[nH]c2ccccc12)C(=O)N[C@@H](Cc1cnc[nH]1)C(=O)N[C@@H](Cc1c[nH]c2ccccc12)C(=O)N[C@@H](CCC(=O)O)C(=O)O)C(C)C [2q] (H-RWVARAYGNYWYIDVWHWE-OH)
EC50 (PD1:PDL1 interaction; [2]): 230 nM

SMILES: CC[C@H](C)[C@H](NC(=O)[C@H](Cc1ccc(O)cc1)NC(=O)CNC(=O)[C@H](Cc1ccc(O)cc1)NC(=O)[C@H](CC(N)=O)NC(=O)CNC(=O)[C@H](Cc1ccc(O)cc1)NC(=O)[C@H](C)NC(=O)[C@H](CCCNC(=N)N)NC(=O)[C@H](C)NC(=O)[C@@H](NC(=O)[C@H](Cc1c[nH]c2ccccc12)NC(=O)[C@@H](N)CCCNC(=N)N)C(C)C)C(=O)N[C@@H](CC(=O)O)C(=O)N[C@H](C(=O)N[C@@H](Cc1c[nH]c2ccccc12)C(=O)N[C@@H](Cc1cnc[nH]1)C(=O)N[C@@H](Cc1c[nH]c2ccccc12)C(=O)N[C@@H](CCC(=O)O)C(=O)O)C(C)C [2r] (H-RWVARAYGNYGYIDVWHWE-OH)
EC50 (PD1:PDL1 interaction; [2]): 170 nM

Continued by falling EC50 (PD1:PDL1 interaction; [2]), values first:

EC50 (PD1:PDL1 interaction; [2]): 950 nM
SMILES: C=CC(=O)NCC[C@H](NC(=O)CNC(=O)[C@H](CC(=O)O)NC(=O)[C@@H](NC(=O)[C@H](CC(N)=O)NC(=O)[C@H](CCSC)NC(=O)CNC(=O)[C@H](CCC(=O)O)NC(=O)[C@H](CCCNC(=N)N)NC(=O)[C@H](C)NC(=O)[C@@H](NC(=O)[C@H](Cc1c[nH]c2ccccc12)NC(=O)[C@@H](N)CCCNC(=N)N)C(C)C)[C@@H](C)O)C(=O)N[C@@H](Cc1ccccc1)C(=O)N[C@@H](CC(N)=O)C(=O)N[C@@H](Cc1ccc(O)cc1)C(=O)N[C@@H](Cc1c[nH]c2ccccc12)C(=O)N[C@H](C(=O)N[C@@H](Cc1c[nH]c2ccccc12)C(=O)N[C@@H](CCC(=O)O)C(=O)O)C(C)C [2pa] (H-RWVAREGMNTDG[Dab](Acryloyl)FNYWVWE-OH)

EC50 (PD1:PDL1 interaction; [2]): 252 nM
SMILES: CSCC[C@H](NC(=O)CNC(=O)[C@H](CCC(=O)O)NC(=O)[C@H](CCCNC(=N)N)NC(=O)[C@H](C)NC(=O)[C@@H](NC(=O)[C@H](Cc1c[nH]c2ccccc12)NC(=O)[C@@H](N)CCCNC(=N)N)C(C)C)C(=O)N[C@@H](CC(N)=O)C(=O)N[C@H](C(=O)N[C@@H](CC(=O)O)C(=O)N[C@@H](Cc1c[nH]c2ccccc12)C(=O)N[C@@H](Cc1ccc(O)cc1)C(=O)N[C@@H](Cc1ccccc1)C(=O)N[C@@H](CC(=O)O)C(=O)N[C@@H](Cc1ccc(O)cc1)C(=O)N[C@@H](Cc1c[nH]c2ccccc12)C(=O)N[C@@H](Cc1cnc[nH]1)C(=O)N[C@@H](Cc1c[nH]c2ccccc12)C(=O)N[C@@H](CCC(=O)O)C(=O)O)[C@@H](C)O [2n] (H-RWVAREGMNTDWYFDYWHWE-OH)
